Active and inactive are the calls of the source. The calls are words filed in the database; no cut-off is given here.
Columns and labels:
[1] = target: Trypanothione reductase (Leishmania donovani) (UniProt P39050); experiment: Inhibition of recombinant Leishmania donovani trypanothione reductase expressed in Escherichia coli BL21 (DE3) using trypanothione disulphide as substrate at 50 uM preincubated for 5 mins followed by substrate addition by microplate reader analysis relative to control
[2] = target: Trypanothione reductase (Leishmania donovani) (UniProt P39050); experiment: Inhibition of recombinant Leishmania donovani trypanothione reductase expressed in Escherichia coli BL21 (DE3) using trypanothione disulphide as substrate at 100 uM preincubated for 5 mins followed by substrate addition by microplate reader analysis relative to control
[3] = Cytotoxicity against African green monkey Vero cells assessed as cell viability after 72 hrs by MTT assay; type: cell-based; settings: chlorocebus sabaeus
Trypanothione reductase = Trypanothione reductase (Leishmania donovani, UniProt P39050); experiment: Competitive inhibition of recombinant Leishmania donovani trypanothione reductase expressed in Escherichia coli BL21 (DE3) by Dixon plot analysis in presence of trypanothione disulphide
Chain of Trypanothione reductase (P39050 whole entry): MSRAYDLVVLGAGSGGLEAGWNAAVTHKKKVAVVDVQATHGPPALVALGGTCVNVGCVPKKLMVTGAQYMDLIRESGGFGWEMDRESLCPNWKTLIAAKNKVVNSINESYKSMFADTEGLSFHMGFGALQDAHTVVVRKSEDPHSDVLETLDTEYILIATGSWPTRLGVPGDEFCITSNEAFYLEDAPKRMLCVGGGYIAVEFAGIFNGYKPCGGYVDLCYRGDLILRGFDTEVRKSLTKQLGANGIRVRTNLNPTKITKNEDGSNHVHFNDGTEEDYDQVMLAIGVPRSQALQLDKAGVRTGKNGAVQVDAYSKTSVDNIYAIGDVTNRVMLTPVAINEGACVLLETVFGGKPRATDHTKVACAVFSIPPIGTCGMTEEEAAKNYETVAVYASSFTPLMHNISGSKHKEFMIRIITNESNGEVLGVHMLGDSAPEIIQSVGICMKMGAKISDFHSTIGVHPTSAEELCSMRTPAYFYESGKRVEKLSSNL

Leishmania donovani [4] = experiment: Antileishmanial activity against amastigote stage of Leishmania donovani infected in mouse J774A.1 cells after 72 hrs by luciferase reporter gene assay; type: functional, organism-based; settings: J774.A1, 72 h
Leishmania donovani [5] = experiment: Antileishmanial activity against extracellular promastigote stage of Leishmania donovani after 96 hrs by luciferase reporter gene assay; type: functional, organism-based
[6] = (§1) Selectivity index, ratio of CC50 for African green monkey Vero cells to IC50 for amastigote stage of Leishmania donovani infected in mouse J774A.1 cells; type: functional
Vero = experiment: as §1; type: functional

Chain of Trypanothione reductase (Leishmania donovani) (P39050 whole entry): as above

| Molecule | inhibition [1] | inhibition [2] | CC50 at 72 h [3] [µM] | Ki (Trypanothione reductase) [µM] | IC50 (Leishmania donovani [4]) [µM] | IC50 (Leishmania donovani [5]) [µM] | Ratio CC50/IC50 [6] | Ratio CC50/IC50 (Vero) |
| --- | --- | --- | --- | --- | --- | --- | --- | --- |
| COC(=O)c1cc2c([nH]c3ccccc32)c(C2Nc3ccccc3C(=O)N2Cc2ccccc2)n1 (stereo unspecified) | 6% | 11% | – | – | – | – | – | – |
| COC(=O)c1cc2c([nH]c3ccccc32)c(C2Nc3ccccc3C(=O)N2Cc2ccc(Cl)c(Cl)c2)n1 (stereo unspecified) | 77% | 85% | 104 | 3.7 | 4.3 | 4.8 | 24 | – |
| COC(=O)c1cc2c([nH]c3ccccc32)c(C2Nc3ccccc3C(=O)N2c2ccc(F)cc2)n1 (stereo unspecified) | 81% | 96% | 217 | 3.9 | 6 | 4.6 | 36 | – |
| COC(=O)c1cc2c([nH]c3ccccc32)c(C2Nc3ccccc3C(=O)N2c2ccc(Cl)cc2)n1 (stereo unspecified) | 64% | 67% | > 400 | 7.2 | 4.4 | 3.3 | >91 | – |
| COC(=O)c1cc2c([nH]c3ccccc32)c(C2Nc3ccccc3C(=O)N2C2CCCCC2)n1 (stereo unspecified) | inactive | 1% | – | – | – | – | – | – |
| COC(=O)c1cc2c([nH]c3ccccc32)c(C2Nc3ccccc3C(=O)N2C2CCCCCC2)n1 (stereo unspecified) | inactive | inactive | – | – | – | – | – | – |
| COC(=O)c1cc2c([nH]c3ccccc32)c(C2Nc3ccccc3C(=O)N2c2ccccc2)n1 (stereo unspecified) | 16% | 18% | – | – | – | – | – | – |
| sodium stibogluconate | – | – | – | – | – | – | – | 7 |
| COC(=O)c1cc2c([nH]c3ccccc32)c(C2Nc3ccccc3C(=O)N2C2CCCC2)n1 (stereo unspecified) | 20% | 30% | – | – | – | – | – | – |
| CCCCN1C(=O)c2ccccc2NC1c1nc(C(=O)OC)cc2c1[nH]c1ccccc12 (stereo unspecified) | 28% | 35% | – | – | – | – | – | – |
| COC(=O)c1cc2c([nH]c3ccccc32)c(C2Nc3ccccc3C(=O)N2Cc2ccc(OC)cc2)n1 (stereo unspecified) | 56% | 60% | 106 | 9.2 | 35.2 | 5.4 | 3 | – |
| CCCN1C(=O)c2ccccc2NC1c1nc(C(=O)OC)cc2c1[nH]c1ccccc12 (stereo unspecified) | 7% | 9% | – | – | – | – | – | – |
| COC(=O)c1cc2c([nH]c3ccccc32)c(C2Nc3ccccc3C(=O)N2C2CC2)n1 (stereo unspecified) | inactive | inactive | – | – | – | – | – | – |
| CCN1C(=O)c2ccccc2NC1c1nc(C(=O)OC)cc2c1[nH]c1ccccc12 (stereo unspecified) | 58% | 75% | – | 6.5 | > 40 | 8.5 | – | – |
| COC(=O)c1cc2c([nH]c3ccccc32)c(C2Nc3ccccc3C(=O)N2c2ccc(OC)cc2)n1 (stereo unspecified) | inactive | inactive | – | – | – | – | – | – |
| CCCCCCCCCCCCCCCCOP(=O)([O-])OCC[N+](C)(C)C [MILTEFOSINE] | – | – | 56.5 | – | 8.1 | 1.2 | 7 | – |
| CCCCCN1C(=O)c2ccccc2NC1c1nc(C(=O)OC)cc2c1[nH]c1ccccc12 (stereo unspecified) | 90% | 99% | – | 0.8 | > 40 | 9.9 | – | – |

Source: ChEMBL document CHEMBL3734756, “Novel -carbolinequinazolinone hybrid as an inhibitor of Leishmania donovani trypanothione reductase: Synthesis, molecular docking and bioevaluation” (Medchemcomm, 2015)
